Data set [1] addresses human MCH1 receptor (Homo sapiens, UniProt Q99705). Description: Intracellular calcium response to MCH in COS-7 cells transfected with MCH1 (fluo-3, FLIPR): antagonist potency. The class given is cell-based. Further details: expressed in transfected cells; host or cells: COS-7. The following applies: read-out: Kb (nM) hMCH1. The text has this: MCH1 antagonist compounds were identified by their ability to inhibit the MCH-elicited response. […]. From the IC50 values, the antagonist potency (Kb)was derived using the Cheng-Prussof correction (Lazareno and Birdsall, 1993). […]
Background: Calcium assays in cells follow changes in intracellular calcium, usually with a dye or a luminescent sensor.

One may read the melting point as the temperature of the solid-liquid transition. By Kb is commonly meant the equilibrium dissociation constant of an antagonist, usually derived from a functional assay.

Structures can show the parent of a compound that is named as a salt.

Sequence of human MCH1 receptor (Q99705 whole entry): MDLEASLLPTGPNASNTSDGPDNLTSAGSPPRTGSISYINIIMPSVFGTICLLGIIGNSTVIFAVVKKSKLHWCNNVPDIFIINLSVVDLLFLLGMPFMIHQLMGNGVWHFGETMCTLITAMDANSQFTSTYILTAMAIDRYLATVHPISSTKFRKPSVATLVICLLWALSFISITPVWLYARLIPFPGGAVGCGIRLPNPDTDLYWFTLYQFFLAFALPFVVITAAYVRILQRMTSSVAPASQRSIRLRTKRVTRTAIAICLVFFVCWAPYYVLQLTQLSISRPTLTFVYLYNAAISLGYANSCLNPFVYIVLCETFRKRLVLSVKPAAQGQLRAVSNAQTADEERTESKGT

With `COC(=O)C1=C(C)NC(=O)N(C(=O)NCCCN2CCC3(CCc4ccccc43)CC2)C1c1ccc2nonc2c1` (racemic) (as salt: hydrochloride) [Example 21], the melting point was in the range of 155 to 157 °C.

`COC(=O)C1=C(C)NC(=O)N(C(=O)NCCCN2CCC3(CC2)OCc2ccccc23)C1c1ccc2nonc2c1` (single isomer, unassigned) (as salt: hydrochloride) [Example 18]: the melting point was in the range of 180 to 182 °C.

For the compound `COC(=O)C1=C(C)NC(=O)N(C(=O)NCCCN2CCN(c3ccccc3[N+](=O)[O-])C[C@@H]2C)C1c1ccc(F)c(F)c1` (single isomer, unassigned; (+)) (as salt: HCl) [Example 34], the melting point was in the range of 150 to 153 °C.

In turn, `COCC1=C(C(=O)OC)C(c2ccc(F)c(F)c2)N(C(=O)NCCCN2CCC(c3cccc(OC)c3)CC2)C(=O)N1` (single isomer, unassigned; (+)) [Example 9, (+)-1,2,3,6-TETRAHYDRO-1-N-[4-(3-METHOXY)-PHENYL}-PIPERIDIN-1-YL]-PROPYL-CARBOXAMIDO-4-METHOXYMETHYL-6-(3,4-DIFLUOROPHENYL)-2-OXOPYRIMIDINE-5-CARBOXYLIC ACID METHYL ESTER] displayed a melting point of 80 to 84 °C. Moreover, in data set [1], the Kb was determined as 35 nM.

The compound `COCC1=C(C(=O)OC)C(c2ccc(F)c(F)c2)N(C(=O)NCCCN2CCC(O)(c3ncccc3C)CC2)C(=O)N1` (single isomer, unassigned; (+)) [Example 16, (+)-1,2,3,6-TETRAHYDRO-1-{N-[4-HYDROXY-4-(2-PYRIDYL)-PIPERIDIN-1-YL]PROPYL}CARBOXAMIDO-4-METHOXYMETHYL-6-(3,4-DIFLUOROPHENYL)-2-OXOPYRIMIDINE-5-CARBOXYLIC ACID METHYL ESTER] displayed a melting point of 132 to 135 °C. The Kb in data set [1] turned out to be 329 nM.

`O=C(NC1CCN(CCC2CCc3ccccc3C2=O)CC1)c1ccccc1` (stereo not drawn) [Example 5] showed a melting point of 158 to 159 °C.

For the compound `COC(=O)C1=C(C)NC(=O)N(C(=O)NCCCN2CCC3(CCc4ccccc43)CC2)C1c1ccc(F)c(F)c1` (stereo not drawn) [Example 32], the melting point was in the range of 150 to 153 °C.

For the origin of these results see patent publication US20040038855A1 (priority 1999, published 2004).
